Holding throughout (format): cell-based
In test [1] the target is T1, M4 muscarinic receptor (Homo sapiens, UniProt P08173).
T1 construct: expressed in transfected cells; host or cells: CHO (M4-CHO)
T1 sequence (P08173 1-479): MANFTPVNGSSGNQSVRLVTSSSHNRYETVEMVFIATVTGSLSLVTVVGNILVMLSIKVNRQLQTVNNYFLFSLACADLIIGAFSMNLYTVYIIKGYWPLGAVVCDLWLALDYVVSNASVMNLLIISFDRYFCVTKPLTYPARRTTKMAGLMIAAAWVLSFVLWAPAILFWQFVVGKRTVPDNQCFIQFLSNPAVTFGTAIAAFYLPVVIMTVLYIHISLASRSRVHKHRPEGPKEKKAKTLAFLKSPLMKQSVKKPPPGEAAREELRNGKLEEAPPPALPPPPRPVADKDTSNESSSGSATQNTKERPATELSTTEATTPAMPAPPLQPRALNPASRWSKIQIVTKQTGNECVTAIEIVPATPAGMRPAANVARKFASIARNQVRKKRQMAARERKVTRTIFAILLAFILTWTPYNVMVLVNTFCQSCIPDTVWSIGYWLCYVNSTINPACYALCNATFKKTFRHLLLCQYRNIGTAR
The experiment in a line: Functional mobilization of intracellular calcium (FLIPR) in CHO cells expressing M4. As to conditions: for EC50: CHO cells expressing M4, FLIPR calcium; for Emax: CHO, 100% = maximum response obtained with the Carbachol control, read-out: M4 Efficacy. In short, it runs like this:
(§1)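 Recombinant CHO cells loaded with Fluo-3 AM or Calcium 3 dye in pH 7.4 buffer containing 1 mM probenecid, with 0.5% final DMSO. For agonism, compound is added directly. For inhibition, it is preincubated 15 min, or co-applied, before carbachol at EC80. FLIPR fluorescence (ex 488, em 540 nm) is recorded for 60 s.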

Test [2] has as its target T2, M2 muscarinic receptor (Homo sapiens, UniProt P08172).
T2 construct: expressed in transfected cells; host or cells: CHO (M2-CHO)
T2 sequence (P08172 1-466): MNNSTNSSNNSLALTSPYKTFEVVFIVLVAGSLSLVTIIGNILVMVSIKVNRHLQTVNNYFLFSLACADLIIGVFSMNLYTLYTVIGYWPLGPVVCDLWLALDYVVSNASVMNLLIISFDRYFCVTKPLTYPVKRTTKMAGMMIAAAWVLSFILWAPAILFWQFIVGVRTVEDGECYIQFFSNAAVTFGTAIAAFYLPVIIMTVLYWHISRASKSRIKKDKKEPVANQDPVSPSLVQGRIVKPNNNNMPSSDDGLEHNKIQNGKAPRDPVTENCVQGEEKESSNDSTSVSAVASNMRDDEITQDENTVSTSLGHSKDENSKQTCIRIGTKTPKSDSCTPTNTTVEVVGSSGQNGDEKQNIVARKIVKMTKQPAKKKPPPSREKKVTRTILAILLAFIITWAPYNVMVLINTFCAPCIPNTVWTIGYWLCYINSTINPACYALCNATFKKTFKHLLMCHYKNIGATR
Put plainly: Functional mobilization of intracellular calcium (FLIPR) in CHO cells expressing M2. As to conditions: for EC50: CHO cells expressing M2, FLIPR calcium; for Emax: CHO, 100% = maximum response obtained with the Carbachol control, read-out: M2 Efficacy. In a few lines:
as §1
(Calcium assays in cells follow changes in intracellular calcium, usually with a dye or a luminescent sensor.)

Test [3] concerns the target T3, M3 muscarinic receptor (Homo sapiens, UniProt P20309).
T3 construct: expressed in transfected cells; host or cells: CHO (M3-CHO)
Put plainly: Functional mobilization of intracellular calcium (FLIPR) in CHO cells expressing M3. The settings on record: for EC50: CHO cells expressing M3, FLIPR calcium; for Emax: CHO, 100% = maximum response obtained with the Carbachol control, read-out: M3 Efficacy. In a few lines: as §1

Test [4] addresses T4, M1 muscarinic receptor (Homo sapiens, UniProt P11229).
T4 construct: expressed in transfected cells; host or cells: CHO (M1-CHO)
T4 sequence (P11229 1-460): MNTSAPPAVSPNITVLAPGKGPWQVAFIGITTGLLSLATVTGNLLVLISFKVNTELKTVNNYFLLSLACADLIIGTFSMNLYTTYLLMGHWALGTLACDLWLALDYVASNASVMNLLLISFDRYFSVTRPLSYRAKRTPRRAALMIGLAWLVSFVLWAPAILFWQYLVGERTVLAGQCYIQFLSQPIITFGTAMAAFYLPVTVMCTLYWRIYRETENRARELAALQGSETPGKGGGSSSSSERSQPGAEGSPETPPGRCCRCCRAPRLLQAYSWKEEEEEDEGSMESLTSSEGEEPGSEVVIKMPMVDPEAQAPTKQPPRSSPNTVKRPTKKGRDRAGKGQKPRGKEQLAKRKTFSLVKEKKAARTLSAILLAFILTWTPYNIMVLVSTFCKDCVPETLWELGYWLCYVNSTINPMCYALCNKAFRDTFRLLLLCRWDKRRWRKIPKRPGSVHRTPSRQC
The experiment in a line: Functional mobilization of intracellular calcium (FLIPR) in CHO cells expressing M1. The settings on record: for EC50: CHO cells expressing M1, FLIPR calcium; for Emax: CHO, 100% = maximum response obtained with the Carbachol control, read-out: M1 Efficacy. In short, it runs like this:
as §1

T3 sequence (P20309 whole entry): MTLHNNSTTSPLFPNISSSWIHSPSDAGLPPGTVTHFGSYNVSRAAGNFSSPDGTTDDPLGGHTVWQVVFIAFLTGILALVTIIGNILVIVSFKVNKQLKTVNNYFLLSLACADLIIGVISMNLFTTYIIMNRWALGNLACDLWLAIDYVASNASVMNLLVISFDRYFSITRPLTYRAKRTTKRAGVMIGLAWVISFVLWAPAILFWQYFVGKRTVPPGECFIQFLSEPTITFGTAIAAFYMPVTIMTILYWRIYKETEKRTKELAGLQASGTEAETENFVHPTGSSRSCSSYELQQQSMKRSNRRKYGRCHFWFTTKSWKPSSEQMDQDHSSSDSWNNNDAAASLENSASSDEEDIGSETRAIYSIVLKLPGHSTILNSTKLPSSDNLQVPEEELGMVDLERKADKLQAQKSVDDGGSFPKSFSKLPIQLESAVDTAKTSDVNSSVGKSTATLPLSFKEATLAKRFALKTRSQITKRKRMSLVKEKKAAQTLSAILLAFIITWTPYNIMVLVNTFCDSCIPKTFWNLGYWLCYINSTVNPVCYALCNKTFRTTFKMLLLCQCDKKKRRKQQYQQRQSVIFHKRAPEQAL

For `CC(=O)N[C@H](C)C(=O)N[C@@H]1CCC2(CCN(CCC(C)(C)C)CC2)c2ccccc21` [compound 162], the EC50 (usually the concentration giving half of the maximal effect) in test [1] is < 2 µM; in test [2] it was > 5 µM; in test [3], > 5 µM; in test [4], > 5 µM. The Emax was 25 to 100% in test [1], < 25% in test [2], < 25% in test [3] and 25 to 100% in test [4].

On to `CC(=O)N[C@H](C)C(=O)N[C@@H]1CCC2(CCN(CCC(C)(C)C)CC2)c2cc(F)ccc21` [compound 163], for which the EC50 in test [1] is < 2 µM; in test [2], < 2 µM; in test [3], > 5 µM; in test [4], < 2 µM. Further, the Emax was 25 to 100% in test [1], 25 to 100% in test [2], < 25% in test [3] and 25 to 100% in test [4].

For `CCC(=O)N(C)[C@H]1CCC2(CCN(CCC(C)(C)C)CC2)c2ccccc21` [compound 164], the EC50 in test [1] is < 2 µM; in test [2] it was > 5 µM; in test [3], > 5 µM; in test [4] it was < 2 µM. For the same compound, the Emax is 25 to 100% in test [1], < 25% in test [2], < 25% in test [3] and 25 to 100% in test [4].

In the case of `Cn1cnc(C(=O)N[C@H]2CCC3(CCN(CCC(C)(C)C)CC3)c3cc(F)ccc32)c1` [compound 165], the EC50 in test [1] is < 2 µM; in test [2] it was < 2 µM; in test [3] it was > 5 µM; in test [4], < 2 µM. Besides, the Emax in test [1] was 25 to 100%; in test [2], 25 to 100%; in test [3], < 25%; in test [4] it was 25 to 100%.

For the compound `CCN(C(=O)C1CCN(C(=O)OC)CC1)[C@H]1CCC2(CCN(CCC(C)(C)C)CC2)c2ccccc21` [compound 166], the EC50 is < 2 µM in test [1], > 5 µM in test [2], > 5 µM in test [3] and > 5 µM in test [4]. Also, the Emax in test [1] was 25 to 100%; in test [2], < 25%; in test [3], < 25%; in test [4] it was 25 to 100%.

Take `CC(C)[C@@H](C(=O)N[C@H]1CCC2(CCN(CCC(C)(C)C)CC2)c2ccccc21)N1CCCC1=O` [compound 167]: the EC50 in test [1] was < 2 µM; in test [2], > 5 µM; in test [3], > 5 µM; in test [4], < 2 µM. The Emax is 25 to 100% in test [1], < 25% in test [2], < 25% in test [3] and 25 to 100% in test [4].

Take `CC(C)(C)CCN1CCC2(CC[C@@H](N3CCCC3=O)c3ccc(F)cc32)CC1` [compound 168]: the EC50 in test [1] is < 2 µM; in test [2] it was > 5 µM; in test [3], > 5 µM; in test [4], 2 to 5 µM. Further, the Emax in test [1] is 25 to 100%; in test [2] it was < 25%; in test [3], < 25%; in test [4], < 25%.

In the case of `CC(C)(C)CCN1CCC2(CC[C@@H](NC(=O)CN3CCCCCC3=O)c3ccccc32)CC1` [compound 169], the EC50 in test [1] was < 2 µM; in test [2], < 2 µM; in test [3] it was > 5 µM; in test [4] it was < 2 µM. The Emax in test [1] is 25 to 100%; in test [2], < 25%; in test [3] it was < 25%; in test [4], 25 to 100%.

Take `CCN(C(=O)C1CCOCC1)[C@H]1CCC2(CCN(CCC(C)(C)C)CC2)c2ccccc21` [compound 170]: the EC50 in test [1] was < 2 µM; in test [2] it was > 5 µM; in test [3], > 5 µM; in test [4] it was > 5 µM. The Emax in test [1] is 25 to 100%; in test [2], < 25%; in test [3] it was < 25%; in test [4] it was < 25%.

As to `CC(=O)N(C)CCC(=O)N[C@H]1CCC2(CCN(CCC(C)(C)C)CC2)c2ccccc21` [compound 171], the EC50 is < 2 µM in test [1], < 2 µM in test [2], > 5 µM in test [3] and < 2 µM in test [4]. For the same compound, the Emax in test [1] is 25 to 100%; in test [2], 25 to 100%; in test [3], < 25%; in test [4], 25 to 100%.

As to `C=CCCCN1CCC2(CC[C@H](NC(C)=O)c3ccccc32)CC1` [compound 172], the EC50 was < 2 µM in test [1], 2 to 5 µM in test [2], > 5 µM in test [3] and < 2 µM in test [4]. Besides, the Emax in test [1] is 25 to 100%; in test [2], 25 to 100%; in test [3], < 25%; in test [4], 25 to 100%.

As to `CC(C)(C)CCN1CCC2(CCC(=O)c3ccccc32)CC1` [compound 173], the EC50 is < 2 µM in test [1], < 2 µM in test [2], > 5 µM in test [3] and < 2 µM in test [4]. Moreover, the Emax in test [1] is 25 to 100%; in test [2] it was 25 to 100%; in test [3] it was < 25%; in test [4] it was 25 to 100%.

With `COC(=O)N(C)[C@H]1CCC2(CCN(CCC(C)(C)C)CC2)c2ccccc21` [compound 174], the EC50 is < 2 µM in test [1], > 5 µM in test [2], > 5 µM in test [3] and 2 to 5 µM in test [4]. The Emax was 25 to 100% in test [1], < 25% in test [2], < 25% in test [3] and 25 to 100% in test [4].

On to `CN(C)C(=O)N[C@H]1CCC2(CCN(CCC(C)(C)C)CC2)c2ccccc21` [compound 175], for which the EC50 in test [1] is < 2 µM; in test [2] it was > 5 µM; in test [3] it was > 5 µM; in test [4] it was > 5 µM. Besides, the Emax was 25 to 100% in test [1], < 25% in test [2], < 25% in test [3] and < 25% in test [4].

Turning to `CN(C(=O)C1CC1)[C@H]1CCC2(CCN(CCC(C)(C)C)CC2)c2ccccc21` [compound 176], the EC50 in test [1] was < 2 µM; in test [2], > 5 µM; in test [3], > 5 µM; in test [4], 2 to 5 µM. Moreover, the Emax in test [1] was 25 to 100%; in test [2], < 25%; in test [3], < 25%; in test [4], < 25%.

As to `CC(=O)N[C@H]1CCC2(CCN(CCC(C)(C)C)CC2)c2cc(F)ccc21` [compound 177], the half-maximal effective concentration (EC50) is < 2 µM in test [1], < 2 µM in test [2], > 5 µM in test [3] and < 2 µM in test [4]. In addition, the Emax in test [1] is 25 to 100%; in test [2] it was 25 to 100%; in test [3], < 25%; in test [4] it was 25 to 100%.

On to `CN(C(=O)C1CCCC1)[C@H]1CCC2(CCN(CCC(C)(C)C)CC2)c2ccccc21` [compound 178], for which the EC50 was < 2 µM in test [1], > 5 µM in test [2], > 5 µM in test [3] and > 5 µM in test [4]. Also, the Emax in test [1] was 25 to 100%; in test [2], < 25%; in test [3], < 25%; in test [4] it was < 25%.

The values are drawn from US8003660B2, “Modulators of muscarinic receptors” (Vertex Pharmaceuticals Incorporated, priority 2006, dated 2011).
